Laboratory results from patent US20210161997A1, “TREATING DISEASES VIA TARGETED MODULATION OF GENE SIGNALING NETWORKS” (Camp4 Therapeutics Corporation, priority 2018, published 2021).

How the values were obtained:
Type in all cases: cell-based
JAG1 = test: RNA-seq of JAG1 expression in compound-treated primary human hepatocytes; settings: for JAG1 Fold Change (Log2): primary human hepatocytes; for Significant modulation of JAG1 (in words): summary of Table 6
Summary of the method: (§1)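 Cryopreserved primary human hepatocytes from three donors, switched to serum-free medium 2 h before compound addition, were harvested about 18 h after treatment. Poly(A) mRNA was sequenced and aligned to GENCODE release 24, with DESeq2 negative binomial differential expression. Fold change is the treated level over the unperturbed level.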

NOTCH2 = test: RNA-seq of NOTCH2 expression in compound-treated primary human hepatocytes; settings: primary human hepatocytes
Summary of the method: as §1

SLC37A4 = test: RNA-seq of SLC37A4 expression in compound-treated primary human hepatocytes
Procedure: Human hepatocytes were obtained from two donors from Massachusetts General Hospital, namely MGH54 and MGH63, and one donor from Lonza, namely HUM4111B. Cryopreserved hepatocytes were cultured in plating media for 16 hours, transferred to maintenance media for 4 hours. Cultured on serum-free media for 2 hours, then a compound was added. The hepatocytes were maintained on the serum-free media for 16 hours prior to gene expression analysis. Primary human hepatocytes were stored in the vapor phase of a liquid nitrogen freezer (about −130° C.).
Human hepatocytes cultured as described above were plated in 24-well format, adding 375,000 cells per well in a volume of 500 ul plating medium. Four hours before treatment, cells were washed with PBS and the medium was changed to either: fresh maintenance medium (complete) or modified maintenance medium.
Compound stocks were prepared at 1000× final concentration and added in a 2-step dilution to the medium to reduce risk of a compound precipitating out of solution when added to the cells, and to ensure reasonable pipetting volumes. One at a time, each compound was first diluted 10-fold in warm (about 37° C.) modified maintenance medium (initial dilution=ID), mixed by vortexing, and the ID was diluted 100-fold into the cell culture (e.g. 5.1 ul into 1 well of a 24-well plate containing 0.5 mL medium). The plate was mixed by carefully swirling and after all wells were treated and returned to the incubator overnight. If desired, separate plates/wells were treated with vehicle-only controls and/or positive controls. If using multi-well plates, controls were included on each plate. After about 18 hours, cells were harvested for further analysis, e.g., ChIP-seq, RNA-seq, ATAC-seq, etc.
This protocol is a modified version of the following protocols: MagMAX mirVana Total RNA Isolation Kit User Guide (Applied Biosystems #MAN0011131 Rev B.0), NEBNext Poly(A) mRNA Magnetic Isolation Module (E7490), and NEBNext Ultra Directional RNA Library Prep Kit for Illumina (E7420) (New England Biosystems #E74901).
The MagMAX mirVana kit instructions (the section titled “Isolate RNA from cells” on pages 14-17) were used for isolation of total RNA from cells in culture. Two hundred μl of Lysis Binding Mix was used per well of the multiwell plate containing adherent cells (usually a 24-well plate).
For mRNA isolation and library prep, the NEBNext Poly(A) mRNA Magnetic Isolation Module and Directional Prep kit was used. RNA isolated from cells above was quantified, and prepared in […] of each sample in 50 μl of nuclease-free water. This protocol may be run in microfuge tubes or in a 96-well plate.
All pass filter reads from each sample were mapped against the human genome (assembly GRCh38/GCA_000001405.15 “no alt” analysis set merged with hs38d1/GCA_000786075.2) using two pass mapping via STAR version 2.5.3a (alignment parameters alignIntronMin=20; alignIntronMax=1000000; outFilterMismatchNmax=999; outFilterMismatchNoverLmax=0.05; outFilterType=BySJout; outFilterMultimapNmax=20; alignSJoverhangMin=8; alignSJDBoverhangMin=1; alignMatesGapMax=1000000) (Dobin et al., Bioinformatics (2012) 29(1):15-21). Genomic alignments were converted to transcriptome alignments based on reference transcript annotations from the Human GENCODE Gene Set release 24 (Harrow et al., Genome Res. (2012) 22(9): 1760-1774). Using unique and multimapped transcriptomic alignments, gene-level abundance estimates were computed using RSEM version 1.3.0 (Li and Dewey, BMC Bioinformatics (2011) 12:323) in a strand-aware manner, and including confidence interval sampling calculations, to arrive at posterior mean estimates (PME) of abundances (counts and normalized FPKM—fragments per kilobase of exon per million mapped fragments) from the underlying Bayesian model. Standard QC were applied (read integrity, mapping statistics, library complexity, fragment bias) to remove unsatisfactory samples.

| SMILES | JAG1 Fold Change (Log2) (JAG1) | Significant modulation of JAG1 (in words) (JAG1) | NOTCH2 Fold Change (Log2) (NOTCH2) | SLC37A4 Fold Change (Log2) (SLC37A4) |
| --- | --- | --- | --- | --- |
| S=C(NCc1ccc2c(c1)OCO2)N1CCN(c2ncnc3c2oc2ccccc23)CC1 [Amuvatinib] | 0.74 Log2 | significantly modulate only JAG1 | −0.79 Log2 | 0.97 Log2 |
| O=C1CCC(N2C(=O)c3ccccc3C2=O)C(=O)N1 (centres unmarked) [Thalidomide] | 1.30 Log2 | significantly modulate only JAG1 | −0.68 Log2 | 0.64 Log2 |
